{"source": "patent EP1145714A1", "about": "“DRUGS” (Takeda Chemical Industries, Ltd., priority 1998, dated 2000)", "key": {"[1]": {"system": "acute vomiting induced by cisplatin in ferrets", "assay": "Acute vomiting induced by cisplatin in ferrets, compound orally given", "format": "in vivo", "settings": "cisplatin 10 mg/kg i.p.; for Duration of retching (in hour; mean ± SD) / Duration of vomiting (in hour;, mean ± SD) / Frequency of retching (mean ± SD) / Frequency of vomiting (mean ± SD) / Number of ferrets with retching /number of tested ferrets / Number of ferrets with vomiting /number of tested ferrets / Time period until first retching (in hour; ± mean SD) / Time period until first vomiting (in hour;, mean ± SD): 5 hours", "method": "5 to 6 male ferrets (1.2 to 2.3 kg) per one group were used. Cisplatin was intraperitoneally given at 10 mg/10 ml/kg. One hour prior to cisplatin administration, a small volume of a feed was given to the animals. 30 minutes prior to cisplatin administration, predetermined doses of the compound No. 3 were orally given. Similarly, 0.5 % methyl cellulose (MC) solution was orally given to a control animal group under no fasting. The frequency of vomiting was counted in number, up to 5 hours after cisplatin administration.\n(§1) The compound No. 3 was suspended in 0.5 % methyl cellulose solution to predetermined concentrations, for oral dosing at a ratio of 1 ml per 1 kg body weight. Additionally, 0.5% methyl cellulose solution was orally given at a ratio of 1 ml per 1 kg body weight. The data relating to the frequency of vomiting, the time period (latency) until first vomiting and the time period from the occurrence of vomiting to the termination thereof were statistically analyzed by the Dunnett test, with reference to the difference from the control group.\nThe acute retching suppression ratio and acute vomiting suppression ratio were calculated by the following formula. [Frequency of retching or vomiting in control] - [Frequency of retching or vomiting in animals dosed with the compound No. 3] / [Frequency of retching or vomiting in control] x 100 (%) [formula]"}, "[2]": {"system": "cisplatin-induced acute vomiting in dogs", "assay": "Cisplatin-induced acute vomiting in dogs, compound intravenously given", "format": "in vivo, beagle dogs", "settings": "cisplatin 3 mg/kg i.v.; for Duration of vomiting (in hour;, mean ± SD) / Frequency of vomiting (mean ± SD) / Number of dogs with vomiting/number of tested dogs / Time period until first vomiting (in hour;, mean ± SD): 5 hours", "method": "Male or female 3 beagle dogs (7.3 to 12.0 kg) per one group were used. Cisplatin was intravenously administered at 3 mg/3 ml/kg. 30 minutes before cisplatin administration, predetermined doses of the compound No. 3 were intravenously given to the animals under fasting. Similarly, a predetermined volume of PEG 400 was intravenously given to a control animal group under fasting.\nas §1, with “dissolved” for “suspended”, “PEG 400” for “0.5 % methyl cellulose solution”, “intravenous” for “oral”, “PEG 400” for “0.5% methyl cellulose solution”, “intravenously” for “orally”, “latency” for “time period (latency) until first vomiting”\nThe acute retching suppression ratio and acute vomiting suppression ratio were determined in the same manner as in Example 1,3."}}, "data": [{"smiles": "Cc1ccc(-c2c3n(c(=O)c4ncccc24)CC[C@@H](C)CN(Cc2cc(C(F)(F)F)cc(C(F)(F)F)c2)C3=O)cc1", "note": "[Cpd. No.3, (9R)-7-[3,5-bis(trifluoromethyl)benzyl]-6,7,8,9,10,11-hexahydro-9-methyl-5-(4-methylphenyl)-6,13-dioxo-13H-[1,4]diazocino[2,1-g][1,7]naphthylidine]", "values": [{"measurement": "Suppression ratio of acute retching", "setting": "[1]; 1 mg/kg p.o.", "result": 38, "unit": "% NS"}, {"measurement": "Suppression ratio of acute vomiting", "setting": "[1]; 1 mg/kg p.o.", "result": 22, "unit": "% NS"}, {"measurement": "Duration of retching (in hour; mean ± SD)", "setting": "[1]; 1 mg/kg p.o.", "result": "1.7 ± 0.4", "unit": "h"}, {"measurement": "Duration of vomiting (in hour;, mean ± SD)", "setting": "[1]; 1 mg/kg p.o.", "result": "1.4 ± 0.4", "unit": "h"}, {"measurement": "Frequency of retching (mean ± SD)", "setting": "[1]; 1 mg/kg p.o.", "result": "79.0 ± 15.1"}, {"measurement": "Frequency of vomiting (mean ± SD)", "setting": "[1]; 1 mg/kg p.o.", "result": "8.3 ± 2.2"}, {"measurement": "Number of ferrets with retching /number of tested ferrets", "setting": "[1]; 1 mg/kg p.o.", "result": "6/6"}, {"measurement": "Number of ferrets with vomiting /number of tested ferrets", "setting": "[1]; 1 mg/kg p.o.", "result": "6/6"}, {"measurement": "Time period until first retching (in hour; ± mean SD)", "setting": "[1]; 1 mg/kg p.o.", "result": "1.5 ± 0.1", "unit": "h"}, {"measurement": "Time period until first vomiting (in hour;, mean ± SD)", "setting": "[1]; 1 mg/kg p.o.", "result": "1.6 ± 0.1", "unit": "h"}, {"measurement": "Effect on vomiting (in words)", "setting": "[1]; 3 mg/kg p.o.", "result": "significantly suppressed"}, {"measurement": "Suppression ratio of acute retching", "setting": "[1]; 3 mg/kg p.o.", "result": 53, "unit": "% b"}, {"measurement": "Suppression ratio of acute vomiting", "setting": "[1]; 3 mg/kg p.o.", "result": 27, "unit": "% NS"}, {"measurement": "Duration of retching (in hour; mean ± SD)", "setting": "[1]; 3 mg/kg p.o.", "result": "1.7 ± 0.3", "unit": "h"}, {"measurement": "Duration of vomiting (in hour;, mean ± SD)", "setting": "[1]; 3 mg/kg p.o.", "result": "1.6 ± 0.4", "unit": "h"}, {"measurement": "Frequency of retching (mean ± SD)", "setting": "[1]; 3 mg/kg p.o.", "result": "59.3 ± 12.0", "unit": "b"}, {"measurement": "Frequency of vomiting (mean ± SD)", "setting": "[1]; 3 mg/kg p.o.", "result": "7.8 ± 1.3"}, {"measurement": "Number of ferrets with retching /number of tested ferrets", "setting": "[1]; 3 mg/kg p.o.", "result": "6/6"}, {"measurement": "Number of ferrets with vomiting /number of tested ferrets", "setting": "[1]; 3 mg/kg p.o.", "result": "6/6"}, {"measurement": "Time period until first retching (in hour; ± mean SD)", "setting": "[1]; 3 mg/kg p.o.", "result": "1.6 ± 0.1", "unit": "h"}, {"measurement": "Time period until first vomiting (in hour;, mean ± SD)", "setting": "[1]; 3 mg/kg p.o.", "result": "1.6 ± 0.1", "unit": "h"}, {"measurement": "Effect on vomiting (in words)", "setting": "[1]; 10 mg/kg p.o.", "result": "prominently suppressed"}, {"measurement": "Suppression ratio of acute retching", "setting": "[1]; 10 mg/kg p.o.", "result": 88, "unit": "% b"}, {"measurement": "Suppression ratio of acute vomiting", "setting": "[1]; 10 mg/kg p.o.", "result": 70, "unit": "% b"}, {"measurement": "Duration of retching (in hour; mean ± SD)", "setting": "[1]; 10 mg/kg p.o.", "result": "2.4 ± 0.5", "unit": "h"}, {"measurement": "Duration of vomiting (in hour;, mean ± SD)", "setting": "[1]; 10 mg/kg p.o.", "result": "1.0 ± 0.4", "unit": "h"}, {"measurement": "Frequency of retching (mean ± SD)", "setting": "[1]; 10 mg/kg p.o.", "result": "14.8 ± 3.7", "unit": "b"}, {"measurement": "Frequency of vomiting (mean ± SD)", "setting": "[1]; 10 mg/kg p.o.", "result": "3.2 ± 1.0", "unit": "b"}, {"measurement": "Number of ferrets with retching /number of tested ferrets", "setting": "[1]; 10 mg/kg p.o.", "result": "5/6"}, {"measurement": "Number of ferrets with vomiting /number of tested ferrets", "setting": "[1]; 10 mg/kg p.o.", "result": "5/6"}, {"measurement": "Time period until first retching (in hour; ± mean SD)", "setting": "[1]; 10 mg/kg p.o.", "result": "2.1 ± 0.6", "unit": "h"}, {"measurement": "Time period until first vomiting (in hour;, mean ± SD)", "setting": "[1]; 10 mg/kg p.o.", "result": "2.2 ± 0.6", "unit": "h"}, {"measurement": "Suppression ratio of acute vomiting", "setting": "[2]; 0.3 mg/kg i.v.", "result": 34, "unit": "% b"}, {"measurement": "Duration of vomiting (in hour;, mean ± SD)", "setting": "[2]; 0.3 mg/kg i.v.", "result": "1.6 ± 0.2", "unit": "h"}, {"measurement": "Frequency of vomiting (mean ± SD)", "setting": "[2]; 0.3 mg/kg i.v.", "result": "12.0 ± 1.5", "unit": "a"}, {"measurement": "Number of dogs with vomiting/number of tested dogs", "setting": "[2]; 0.3 mg/kg i.v.", "result": "3/3"}, {"measurement": "Time period until first vomiting (in hour;, mean ± SD)", "setting": "[2]; 0.3 mg/kg i.v.", "result": "1.6 ± 0.2", "unit": "h"}, {"measurement": "Effect on cisplatin-induced vomiting (in words)", "setting": "[2]; 0.3 mg/kg or higher i.v.", "result": "significantly suppressed"}, {"measurement": "Suppression ratio of acute vomiting", "setting": "[2]; 1 mg/kg i.v.", "result": 71, "unit": "% b"}, {"measurement": "Duration of vomiting (in hour;, mean ± SD)", "setting": "[2]; 1 mg/kg i.v.", "result": "1.7 ± 0.5", "unit": "h"}, {"measurement": "Frequency of vomiting (mean ± SD)", "setting": "[2]; 1 mg/kg i.v.", "result": "5.3 ± 1.2", "unit": "a"}, {"measurement": "Number of dogs with vomiting/number of tested dogs", "setting": "[2]; 1 mg/kg i.v.", "result": "3/3"}, {"measurement": "Time period until first vomiting (in hour;, mean ± SD)", "setting": "[2]; 1 mg/kg i.v.", "result": "1.4 ± 0.3", "unit": "h"}, {"measurement": "Effect on cisplatin-induced vomiting (in words)", "setting": "[2]; 3 mg/kg i.v.", "result": "almost completely suppressed"}, {"measurement": "Suppression ratio of acute vomiting", "setting": "[2]; 3 mg/kg i.v.", "result": 96, "unit": "% b"}, {"measurement": "Duration of vomiting (in hour;, mean ± SD)", "setting": "[2]; 3 mg/kg i.v.", "result": "0.1 ± 0.1", "unit": "a hour"}, {"measurement": "Frequency of vomiting (mean ± SD)", "setting": "[2]; 3 mg/kg i.v.", "result": "0.7 ± 0.7", "unit": "a"}, {"measurement": "Number of dogs with vomiting/number of tested dogs", "setting": "[2]; 3 mg/kg i.v.", "result": "1/3"}, {"measurement": "Time period until first vomiting (in hour;, mean ± SD)", "setting": "[2]; 3 mg/kg i.v.", "result": "3.9 ± 1.1", "unit": "a hour"}, {"measurement": "Effect on the latency (in words)", "setting": "[2]; i.v.", "result": "prolonged"}]}]}
